Data published in PMC9848259 (Journal of Enzyme Inhibition and Medicinal Chemistry, 2023).

Experiments:
ACHE and BACE-1A = target: T1, ACHE and BACE-1A (Homo sapiens, UniProt P22303+P56817); test: Yeast three-hybrid (Y3H) assay with β-galactosidase readout; format: cell-based, Saccharomyces cerevisiae; conditions: 10 µM ligand
T1 construct: the prepared pGBKT7-hACHE plasmid contained the cDNA fragment encoding for aa 52–577; obtained from the extracellular, N-terminal domain (aa 46–457) of BACE1A (GenBank: AF204943.1); host or cells: Saccharomyces cerevisiae Y2HGold (bait) mated with Y187 (prey)
Method: The Y3H method was used to analyse the possible hybrid-ligand induced interactions between five selected proteins. […]. Yeast codon optimisation was performed to facilitate high expression of human recombinant proteins in Saccharomyces cerevisae. The fragments for the signal peptide (aa 1–51) and domain responsible for protein tetramerization (aa 578–611) were obtained from the cDNA encoding for human ACHE (GenBank M55040.1). Therefore, the prepared pGBKT7-hACHE plasmid contained the cDNA fragment encoding for aa 52–577. […]
The yeast ẞ-galactosidase microplate assay protocol (stopped) was used to evaluate the ẞ-galactosidase activity in the yeast culture according to the manufacturer’s instructions. […] Optical density was measured at 660 nm and absorbance at 420 nm by a Synergy H1 spectrophotometer (Biotek). In the quantitative ẞ-galactosidase assay, the hybrid ligand 3e was used. […]

SH-SY5Y cells = test: Neuroprotection against H2O2-induced oxidative stress, MTT test; format: cell-based, human; conditions: H2O2 100 µM
[1] = In vivo acute oral toxicity (OECD 423); set-up: species or system mice; conditions: female, Balb/c, mouse, in vivo, OECD 423, read-out: LD50 cut-off
Method: (§1) Compound 3e was administered by the oral route (by gavage) in one of four fixed doses (5, 50, 300, 2000 mg/kg) for a given stage of the study. The results allow to classify the compound according to the Globally Harmonised Classification System for Chemical Substances and Mixtures (GHS). In addition, the LD50 cut-off values was determined. According to the figure from the OECD 423 guidelines, a maximum of six test stages can be performed. Three animals (female mice, Balb/c) took part in each stage, and the number of stages depends on the mortality of the animals, which is the final test parameter. The research was carried out on the basis of the agreement of the Local Ethical Committee for animal testing in Łódź No. 56/115 ŁB/2018.
(§2) After quarantine, handling, weighing and labelling, the compound 3e was given in a dose of 300 mg/kg (300 mg/kg is a dose used in the absence of information on the toxicity of the test substance. If 2–3 animals die after using this dose, compound will be given at a lower dose − 50 mg/kg. Last dose 5 mg/kg is used if after a dose of 50 mg/kg also 2–3 animals die. If no death occurs, or death of one animal, the compound is again administered to the stomach in the same dose 300 mg/kg, and […], a dose of 2000 mg/kg of body weight is used). The presence of a substance-dependent mortality of animals exposed at one stage determines the performance of the next stage of the study. After each dose, animals are observed for 14 days. […].

female mice, Balb/c = test: In vivo acute oral toxicity (OECD 423)
Method: as §1, §2

T1 sequence (P22303 52-577): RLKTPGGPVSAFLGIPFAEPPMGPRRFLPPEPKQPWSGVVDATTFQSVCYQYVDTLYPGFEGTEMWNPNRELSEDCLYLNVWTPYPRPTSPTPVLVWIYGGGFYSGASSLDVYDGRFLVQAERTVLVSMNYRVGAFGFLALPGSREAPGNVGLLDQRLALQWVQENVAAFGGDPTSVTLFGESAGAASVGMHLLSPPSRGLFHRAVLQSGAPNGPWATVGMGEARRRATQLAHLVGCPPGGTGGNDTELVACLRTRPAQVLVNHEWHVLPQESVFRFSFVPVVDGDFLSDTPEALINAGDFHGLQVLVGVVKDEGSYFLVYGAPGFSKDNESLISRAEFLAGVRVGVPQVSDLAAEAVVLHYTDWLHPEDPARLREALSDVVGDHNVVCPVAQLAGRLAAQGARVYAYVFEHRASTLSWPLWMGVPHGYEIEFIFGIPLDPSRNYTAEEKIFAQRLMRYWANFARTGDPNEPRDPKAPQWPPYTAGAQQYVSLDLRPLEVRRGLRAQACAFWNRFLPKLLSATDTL
T1 sequence (P56817 46-457): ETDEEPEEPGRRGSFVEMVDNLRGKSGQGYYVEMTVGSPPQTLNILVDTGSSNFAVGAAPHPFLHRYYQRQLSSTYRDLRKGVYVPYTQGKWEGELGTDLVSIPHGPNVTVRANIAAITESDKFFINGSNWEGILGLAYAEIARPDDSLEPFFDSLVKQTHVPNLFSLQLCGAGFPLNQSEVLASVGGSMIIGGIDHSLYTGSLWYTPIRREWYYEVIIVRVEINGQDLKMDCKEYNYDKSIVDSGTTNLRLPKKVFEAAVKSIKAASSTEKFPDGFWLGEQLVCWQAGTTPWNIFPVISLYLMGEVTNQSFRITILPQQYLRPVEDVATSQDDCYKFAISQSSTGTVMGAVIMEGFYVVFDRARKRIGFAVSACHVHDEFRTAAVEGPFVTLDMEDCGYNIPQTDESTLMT

With `O=C(NCCCCCCNc1c2c(nc3ccccc13)CCC2)c1cc(Cl)cc(Cl)c1` [Compound 3e] the “β-galactosidase activity (strength of interaction)” value (ACHE and BACE-1A; 96 h, triplicate) was 206.37 ± 4.85 units, the “hybrid ligand-mediated interaction of ACHE-BACE-1A protein pair (blue colonies)” value (ACHE and BACE-1A; DDO and QDO/X/A plates) was “yielded blue colonies” and the “% neuroprotection” value (SH-SY5Y cells; compound 0.01 µM) was 40.04%. The “% neuroprotection” value (SH-SY5Y cells; compound 0.1 µM) was 79.34%, the “% neuroprotection” value (SH-SY5Y cells; compound 1 µM) was 71% and the LD50 at 14 days [1] was 1000 mg/kg. For the same molecule, the mortality (female mice, Balb/c; 300 mg/kg, first and second stages, 3 female Balb/c mice per stage) was “did not cause any death”, the mortality (female mice, Balb/c; 2000 mg/kg, stage one, 3 mice) was “no animal died” and the mortality (female mice, Balb/c; 2000 mg/kg, stage two, 3 mice) was “two died”. The GHS classification (female mice, Balb/c; OECD 423) was “Category 4 GHS”.
